# Measurements taken from patent US6461997B1, “Triazole sulfones having herbicidal activity” (Monsanto Technology LLC, priority 1999, dated 2002).
# System: VERPE (creeping speedwell)
# Assay: Pre-emergence herbicidal activity, cool season
# Format: in vivo, Veronica persicaria
# Details: lowest tested rate with 80% or greater inhibition; rates 300, 100, 30, 10 g/ha; about 14 days
# In short: (§1)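 Seeds sown in sterilised fertilised topsoil received surface-applied compound in 50:50 acetone/water, typically at 300, 100, 30 and 10 g/ha, then greenhouse-grown at 30/21° C (warm-season species) or 18/13° C (cool-season species). Percent inhibition versus untreated plants was scored at about 14 days, giving GR80; an asterisk marks activity short of 80% at the top rate.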
row,Structure (SMILES),"Pre-emergence activity GR80, VERPE"
1,CON(C)C(=O)n1cnc(S(=O)(=O)C(F)(F)Cl)n1 [Example 93],300 g/ha
2,CCCN(CC)C(=O)n1cnc(S(=O)(=O)C(F)(F)Br)n1 [Example 39],10 g/ha
3,CCSC(F)(F)S(=O)(=O)c1ncn(C(=O)N(C)Cc2ccccc2)n1 [Example 56],[empty]

# System: SETFA (giant foxtail)
# Assay: Pre-emergence herbicidal activity, warm season
# Format: in vivo, Setaria faberi
# Details: GR80 = lowest tested rate (300, 100, 30, 10 g/ha) with 80% or greater inhibition; approx. 14 days after treating; 30/21° C.
# Description: (§2) Tables 5 to 8 summarize results of tests conducted as described below to determine the pre-emergence herbicidal activity, in the form of a GR80 value, of illustrative compounds of this invention. […] Compounds of the invention were typically applied at rates of 300, 100, 30, and 10 g/ha. Where herbicidal activity was evident but 80% inhibition was not achieved at the highest rate tested, an asterisk (*) is shown in the following tables.
# (§3) The pre-emergence tests were conducted by the following procedure. Topsoil was sieved to pass through a 1.27 cm screen. Fertilizer was added to the topsoil and the mixture was then sterilized by heating. The topsoil mixture was placed in a pot and compacted to a depth of 1.0 to 1.25 cm from the top of the pot. Seeds of each of several monocotyledonous and dicotyledonous annual plant species were placed on top of the soil. Additional soil was subsequently placed over the seeds to level-fill the pot. A known amount of each test compound dissolved or suspended in an appropriate organic solvent was diluted with a 50:50 mix of acetone and water and applied to the surface of the soil. After treatment the plants were placed in a greenhouse where they received 0.64 cm of overhead irrigation. All subsequent watering consisted of a light overhead mist and/or subirrigation as needed for germination and growth. Tables 5 and 6 below relate to warm season plant species which were placed after pre-emergence treatment in a greenhouse with a 30/21° C. day/night temperature regime. Tables 7 and 8 below relates to cool season plant species placed after pre-emergence treatment in a greenhouse or growth chamber with an 18/13° C. day/night temperature regime.
# (§4) Approximately 14 days after planting and treating, the plants were observed and herbicidal efficacy recorded as percent inhibition by comparison with untreated plants.
# (§5) The plant species usually regarded as weeds which were utilized in the tests are identified in the tables below according to the following legend, in which “d” indicates a dicotyledonous species and “m” a monocotyledonous species. All monocotyledonous species included in the tests herein are grasses.
row,Structure (SMILES),Pre-emergence activity (GR80) SETFA [g/ha]
1,CCCN(CC)C(=O)n1cnc(S(=O)(=O)C(F)(F)Br)n1 [Example 39],100

# System: SASKR (russian thistle)
# Assay: Pre-emergence herbicidal activity, cool season
# Format: in vivo, Salsola kali
# Details: lowest tested rate with 80% or greater inhibition; rates 300, 100, 30, 10 g/ha; about 14 days
# In short: as §1
row,Structure (SMILES),"Pre-emergence activity GR80, SASKR"
1,CON(C)C(=O)n1cnc(S(=O)(=O)C(F)(F)Cl)n1 [Example 93],[empty]
2,CCCN(CC)C(=O)n1cnc(S(=O)(=O)C(F)(F)Br)n1 [Example 39],100 g/ha
3,CCSC(F)(F)S(=O)(=O)c1ncn(C(=O)N(C)Cc2ccccc2)n1 [Example 56],[empty]

# System: SINAR (wild mustard)
# Assay: Pre-emergence herbicidal activity, cool season
# Format: in vivo, Sinapis arvensis
# Details: lowest tested rate with 80% or greater inhibition; rates 300, 100, 30, 10 g/ha; about 14 days
# In short: as §1
row,Structure (SMILES),"Pre-emergence activity GR80, SINAR"
1,CON(C)C(=O)n1cnc(S(=O)(=O)C(F)(F)Cl)n1 [Example 93],[empty]
2,CCCN(CC)C(=O)n1cnc(S(=O)(=O)C(F)(F)Br)n1 [Example 39],30 g/ha
3,CCSC(F)(F)S(=O)(=O)c1ncn(C(=O)N(C)Cc2ccccc2)n1 [Example 56],[empty]

# System: DATST (jimsonweed)
# Assay: Pre-emergence herbicidal activity, warm season
# Format: in vivo, Datura stramonium
# Details: GR80 = lowest tested rate (300, 100, 30, 10 g/ha) with 80% or greater inhibition; approx. 14 days after treating; 30/21° C.
# Description: as §2, §3, §4, §5
row,Structure (SMILES),Pre-emergence activity (GR80) DATST [g/ha]
1,CCSC(F)(F)S(=O)(=O)c1ncn(C(=O)N(C)Cc2ccccc2)n1 [Example 56],300

# System: GALAP (catchweed bedstraw)
# Assay: Pre-emergence herbicidal activity, cool season
# Format: in vivo, Galium aparine
# Details: lowest tested rate with 80% or greater inhibition; rates 300, 100, 30, 10 g/ha; about 14 days
# In short: as §1
row,Structure (SMILES),"Pre-emergence activity GR80, GALAP"
1,CON(C)C(=O)n1cnc(S(=O)(=O)C(F)(F)Cl)n1 [Example 93],[empty]
2,CCCN(CC)C(=O)n1cnc(S(=O)(=O)C(F)(F)Br)n1 [Example 39],100 g/ha
3,CCSC(F)(F)S(=O)(=O)c1ncn(C(=O)N(C)Cc2ccccc2)n1 [Example 56],[empty]

# System: LAMPU (purple deadnettle)
# Assay: Pre-emergence herbicidal activity, cool season
# Format: in vivo, Lamium purpureum
# Details: lowest tested rate with 80% or greater inhibition; rates 300, 100, 30, 10 g/ha; about 14 days
# In short: as §1
row,Structure (SMILES),"Pre-emergence activity GR80, LAMPU"
1,CON(C)C(=O)n1cnc(S(=O)(=O)C(F)(F)Cl)n1 [Example 93],[empty]
2,CCCN(CC)C(=O)n1cnc(S(=O)(=O)C(F)(F)Br)n1 [Example 39],30 g/ha
3,CCSC(F)(F)S(=O)(=O)c1ncn(C(=O)N(C)Cc2ccccc2)n1 [Example 56],[empty]

# System: STEME (common chickweed)
# Assay: Pre-emergence herbicidal activity, cool season
# Format: in vivo, Stellaria media
# Details: lowest tested rate with 80% or greater inhibition; rates 300, 100, 30, 10 g/ha; about 14 days
# In short: as §1
row,Structure (SMILES),"Pre-emergence activity GR80, STEME"
1,CON(C)C(=O)n1cnc(S(=O)(=O)C(F)(F)Cl)n1 [Example 93],[empty]
2,CCCN(CC)C(=O)n1cnc(S(=O)(=O)C(F)(F)Br)n1 [Example 39],30 g/ha
3,CCSC(F)(F)S(=O)(=O)c1ncn(C(=O)N(C)Cc2ccccc2)n1 [Example 56],[empty]

# System: SORHA (johnsongrass (seedling))
# Assay: Pre-emergence herbicidal activity, warm season
# Format: in vivo, Sorghum halepense
# Details: GR80 = lowest tested rate (300, 100, 30, 10 g/ha) with 80% or greater inhibition; approx. 14 days after treating; 30/21° C.
# Description: as §2, §3, §4, §5
row,Structure (SMILES),Pre-emergence activity (GR80) SORHA [g/ha]
1,CCCN(CC)C(=O)n1cnc(S(=O)(=O)C(F)(F)Br)n1 [Example 39],100

# System: ALOMY (blackgrass)
# Assay: Pre-emergence herbicidal activity, cool season
# Format: in vivo, Alopecurus myosuroides
# Details: GR80 = lowest tested rate (300, 100, 30, 10 g/ha) with 80% or greater inhibition; approx. 14 days after treating; 18/13° C.
# Description: as §2, §3, §4, §5
row,Structure (SMILES),Pre-emergence activity (GR80) ALOMY [g/ha]
1,CCCN(CC)C(=O)n1cnc(S(=O)(=O)C(F)(F)Br)n1 [Example 39],300

# System: AMARE (redroot pigweed)
# Assay: Pre-emergence herbicidal activity, warm season
# Format: in vivo, Amaranthus retroflexus
# Details: GR80 = lowest tested rate (300, 100, 30, 10 g/ha) with 80% or greater inhibition; approx. 14 days after treating; 30/21° C.
# Description: as §2, §3, §4, §5
row,Structure (SMILES),Pre-emergence activity (GR80) AMARE [g/ha]
1,CCCN(CC)C(=O)n1cnc(S(=O)(=O)C(F)(F)Br)n1 [Example 39],300

# System: POLCO (wild buckwheat)
# Assay: Pre-emergence herbicidal activity, cool season
# Format: in vivo, Polygonum convolvulus
# Details: lowest tested rate with 80% or greater inhibition; rates 300, 100, 30, 10 g/ha; about 14 days
# In short: as §1
row,Structure (SMILES),"Pre-emergence activity GR80, POLCO"
1,CON(C)C(=O)n1cnc(S(=O)(=O)C(F)(F)Cl)n1 [Example 93],[empty]
2,CCCN(CC)C(=O)n1cnc(S(=O)(=O)C(F)(F)Br)n1 [Example 39],100 g/ha
3,CCSC(F)(F)S(=O)(=O)c1ncn(C(=O)N(C)Cc2ccccc2)n1 [Example 56],[empty]

# System: AGSST (creeping bentgrass)
# Assay: Pre-emergence herbicidal activity, cool season
# Format: in vivo, Agrostis stolonifera
# Details: GR80 = lowest tested rate (300, 100, 30, 10 g/ha) with 80% or greater inhibition; approx. 14 days after treating; 18/13° C.
# In short: as §1
row,Structure (SMILES),Pre-emergence activity (GR80) AGSST [g/ha]
1,CCCN(CC)C(=O)n1cnc(S(=O)(=O)C(F)(F)Br)n1 [Example 39],30
2,CCSC(F)(F)S(=O)(=O)c1ncn(C(=O)N(C)Cc2ccccc2)n1 [Example 56],100

# System: PANMI (wild proso millet)
# Assay: Pre-emergence herbicidal activity, warm season
# Format: in vivo, Panicum miliaceum
# Details: GR80 = lowest tested rate (300, 100, 30, 10 g/ha) with 80% or greater inhibition; approx. 14 days after treating; 30/21° C.
# In short: as §1
row,Structure (SMILES),Pre-emergence activity (GR80) PANMI [g/ha]
1,CCCN(CC)C(=O)n1cnc(S(=O)(=O)C(F)(F)Br)n1 [Example 39],300

# System: ECHCG (barnyardgrass)
# Assay: Pre-emergence herbicidal activity, warm season
# Format: in vivo, Echinochloa crus-galli
# Details: GR80 = lowest tested rate (300, 100, 30, 10 g/ha) with 80% or greater inhibition; approx. 14 days after treating; 30/21° C.
# In short: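 GR80 values derive from percent inhibition relative to untreated plants, read roughly 14 days after sowing and pre-emergence soil-surface treatment (compound in 50:50 acetone/water; rates typically 10, 30, 100, 300 g/ha). Warm-season weeds grew at 30/21° C day/night, cool-season ones at 18/13° C; an asterisk marks activity without reaching 80% at the highest rate.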
row,Structure (SMILES),Pre-emergence activity (GR80) ECHCG [g/ha]
1,CCCN(CC)C(=O)n1cnc(S(=O)(=O)C(F)(F)Br)n1 [Example 39],300

# System: ABUTH (velvetleaf)
# Assay: Pre-emergence herbicidal activity, warm season
# Format: in vivo, Abutilon theophrasti
# Details: GR80 = lowest tested rate (300, 100, 30, 10 g/ha) with 80% or greater inhibition; approx. 14 days after treating; 30/21° C.
# Description: as §2, §3, §4, §5
row,Structure (SMILES),Pre-emergence activity (GR80) ABUTH [g/ha]
1,CON(C)C(=O)n1cnc(S(=O)(=O)C(F)(F)Cl)n1 [Example 93],100

# System: LOLMG (annual ryegrass)
# Assay: Pre-emergence herbicidal activity, cool season
# Format: in vivo, Lolium multiflorum
# Details: GR80 = lowest tested rate (300, 100, 30, 10 g/ha) with 80% or greater inhibition; approx. 14 days after treating; 18/13° C.
# Description: as §2, §3, §4, §5
row,Structure (SMILES),Pre-emergence activity (GR80) LOLMG [g/ha]
1,CCCN(CC)C(=O)n1cnc(S(=O)(=O)C(F)(F)Br)n1 [Example 39],300

# System: SETVI (green foxtail)
# Assay: Pre-emergence herbicidal activity, cool season
# Format: in vivo, Setaria viridis
# Details: GR80 = lowest tested rate (300, 100, 30, 10 g/ha) with 80% or greater inhibition; approx. 14 days after treating; 18/13° C.
# In short: as §1
row,Structure (SMILES),Pre-emergence activity (GR80) SETVI [g/ha]
1,CCCN(CC)C(=O)n1cnc(S(=O)(=O)C(F)(F)Br)n1 [Example 39],100
2,CCSC(F)(F)S(=O)(=O)c1ncn(C(=O)N(C)Cc2ccccc2)n1 [Example 56],100

# System: CHEAL (common lambsquarters)
# Assay: Pre-emergence herbicidal activity, warm season
# Format: in vivo, Chenopodium album
# Details: GR80 = lowest tested rate (300, 100, 30, 10 g/ha) with 80% or greater inhibition; approx. 14 days after treating; 30/21° C.
# Description: as §2, §3, §4, §5
row,Structure (SMILES),Pre-emergence activity (GR80) CHEAL [g/ha]
1,CCCN(CC)C(=O)n1cnc(S(=O)(=O)C(F)(F)Br)n1 [Example 39],300
